Reference: ChEMBL document CHEMBL1135811, “4-(Phenylsulfonyl)piperidines: novel, selective, and bioavailable 5-HT(2A) receptor antagonists” (J Med Chem, 2002)

Columns and labels:
Type in all cases: ADME, organism-based
[1] = Maximum blood concentration after oral dose of 2.0 mg/kg; set-up: dose 2 mg/kg, route oral
[2] = Area under concentration-time curve for 0-4 hr after oral dose of 2.0 mg/kg; set-up: time < 4 hr, dose 2 mg/kg, route oral; conditions: in vivo
[3] = Mean residence time following intravenous dosing; conditions: in vivo
[4] = (§1) Maximum blood concentration after oral dose of […]; set-up: dose 1.5 mg/kg, route oral
[5] = (§2) Area under concentration-time curve for 0-4 hr after oral dose of […]; set-up: time < 4 hr, dose 1.5 mg/kg, route oral; conditions: in vivo
[6] = Bioavailability; conditions: eutheria, in vivo
[7] = Maximum blood concentration after oral dose of 10 mg/kg; set-up: dose 10 mg/kg, route oral
[8] = Area under concentration-time curve for 0-4 hr after oral dose of 10 mg/kg; set-up: time < 4 hr, dose 10 mg/kg, route oral; conditions: in vivo
[9] = Area under concentration-time curve for 0-4 hr after oral dose 1 mg/kg; set-up: time < 4 hr, dose 1 mg/kg, route oral; conditions: in vivo
[10] = Maximum blood concentration after oral dose 1 mg/kg; set-up: dose 1 mg/kg, route oral
[11] = as §1; set-up: dose 1.2 mg/kg, route oral
[12] = as §2; set-up: time < 4 hr, dose 1.2 mg/kg, route oral; conditions: in vivo

MRT [3] [h] | bioavailability [6] [%] | AUC(0-t) at 4 h [9] [ng·h/mL] | Cmax [10] [ng/mL] | Structure (SMILES) | further results
– | – | – | – | OC1c2ccccc2CCC12CCN(CCc1ccccc1)CC2 (stereo unspecified) | Cmax [1]: 2 ng/mL; AUC(0-t) at 4 h [2]: 3 ng·h/mL
1.5 | – | – | – | COc1ccc2c(c1)CCC1(CCN(CCc3ccc(F)cc3F)CC1)O2 | Cmax [4]: 2 ng/mL; AUC(0-t) at 4 h [5]: 4 ng·h/mL
1 | 2 | – | – | O=S(=O)(c1ccccc1)C1CCN(CCc2ccc(F)cc2F)CC1 | Cmax [7]: 23 ng/mL; AUC(0-t) at 4 h [8]: 100 ng·h/mL
– | – | – | – | O=S1(=O)c2ccccc2CCC12CCN(CCc1ccc(F)cc1F)CC2 | Cmax [1]: 1 ng/mL; AUC(0-t) at 4 h [2]: 1 ng·h/mL
0.9 | 22 | 199 | 70 | NC(=O)c1ccc(S(=O)(=O)C2CCN(CCc3ccc(F)cc3F)CC2)cc1 | –
0.7 | 30 | 171 | 140 | O=C(CN1CCC(S(=O)(=O)c2ccccc2)CC1)c1ccc(F)cc1 | –
1 | 3 | – | – | COc1cccc([C@H](O)C2CCN(CCc3ccc(F)cc3)CC2)c1OC [VOLINANSERIN] | Cmax [11]: 2 ng/mL; AUC(0-t) at 4 h [12]: 8 ng·h/mL
2.3 | 23 | 177 | 30 | N#Cc1ccc(S(=O)(=O)C2CCN(CCc3ccc(F)cc3F)CC2)cc1 | –
1.1 | 24 | 115 | 38 | NC(=O)c1cccc(S(=O)(=O)C2CCN(CCc3ccc(F)cc3F)CC2)c1 | –
